Measured values published in ChEMBL document CHEMBL2074174, “Directional trans-epithelial transport of organic anions in porcine LLC-PK1 cells that co-express human OATP1B1 (OATP-C) and MRP2” (Biochem Pharmacol, 2005).

Biological target: Canalicular multispecific organic anion transporter 1/Solute carrier organic anion transporter family member 1B1 (Homo sapiens, UniProt Q92887+Q9Y6L6)
Assay: TP_TRANSPORTER: Transepithelial Transport (basal to apical) in OATP1B1/MRP2 double transfected LLC-PK1 cell
Format: functional, cell-based
Details: pig

| SMILES | Activity |
| --- | --- |
| C[C@]12CC[C@@H]3c4ccc(O)cc4CC[C@H]3[C@@H]1CC[C@@H]2O[C@@H]1O[C@H](C(=O)O)[C@@H](O)[C@H](O)[C@H]1O [ESTRADIOL 17B GLUCURONIDE] | substrate [(+)] |
| C[C@]12CC[C@@H]3c4ccc(OS(=O)(=O)O)cc4CC[C@H]3[C@@H]1CCC2=O [ESTRONE SULFURIC ACID] | substrate [(+)] |
| C[C@]12CC[C@H](OS(=O)(=O)O)CC1=CC[C@@H]1[C@@H]2CC[C@]2(C)C(=O)CC[C@@H]12 [PRASTERONE SULFURIC ACID] | substrate [(+)] |
